Assay results taken from patent publication US12590062B2, “PD-1/PD-L1 inhibitors” (Gilead Sciences, Inc., priority 2017, dated 2026).

How the values were obtained:
PD-L1 = target: T1, PD-L1 (Homo sapiens, UniProt Q9NZQ7); assay: PD-L1/PD-L1 dimerization biochemical protein-protein interaction assay (ALPHA); assay type: binding; details: compound-induced PD-L1 dimerization, head prints '1 nM' (0.5 nM His-tagged PD-L1 and 0.5 nM FLAG-tagged PD-L1), read-out: AC50 PDL1 Dimer Alpha 1 nM
T1 construct: determine if they can specifically dimerize the extracellular domains of PD-L1
In short: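 ALPHA proximity assay of compound-induced dimerization of 0.5 nM His-tagged and 0.5 nM FLAG-tagged PD-L1 extracellular domains in Hepes pH 7.4 buffer, 2 h at 25 °C. Anti-His acceptor then anti-FLAG donor beads, 60 min each; AC50 from four-parameter fit.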

PD-1/PD-L1 = PD-1/PD-L1 (Homo sapiens, UniProt Q9NZQ7); assay: PD-1/PD-L1 biochemical protein-protein interaction assay (ALPHA); assay type: binding; details: 0.3 nM His tagged PD-L1, 2.5 nM biotinylated Fc-PD-1, 60 minutes at 25° C., read-out: IC50 PD-L1-PD-1 Alpha IC50-mono PD-L1-fcP-D1
In short: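 Compounds are tested for blocking the PD-1/PD-L1 extracellular-domain interaction using an ALPHA bead assay, in which inhibition lowers the luminescent signal. Reactions run 60 min at 25° C with 0.3 nM His-PD-L1 and 2.5 nM biotinylated Fc-PD-1. IC50 values come from four-parameter fits.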

PD-1/PD-L1 interaction = target: T2, PD-1/PD-L1 interaction (Homo sapiens, UniProt Q9NZQ7); assay: PD-1/PD-L1 NFAT reporter co-culture assay; assay type: cell-based; details: Jurkat PD-1 NFAT-luciferase cells co-cultured with aAPC-PD-L1 CHO cells, 6 hrs at 37° C.; read-out: EC50 NFAT Luciferase
T2 construct: expressed in transfected cells; host or cells: CHO cells (aAPC-PD-L1) co-cultured with Jurkat cells overexpressing PD-1 and an NFAT-luciferase reporter
In short: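 First, CHO cells displaying anti-CD3 antibody and PD-L1 were plated overnight. Next, compound-treated PD-1 Jurkat NFAT-luciferase reporter cells in 2% FBS RPMI were added for 6 h at 37 °C. Finally, ONE-Glo luminescence was read and EC50 values fitted with a four-parameter equation.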

Chain of PD-1/PD-L1 (Q9NZQ7 19-238 limits assumed): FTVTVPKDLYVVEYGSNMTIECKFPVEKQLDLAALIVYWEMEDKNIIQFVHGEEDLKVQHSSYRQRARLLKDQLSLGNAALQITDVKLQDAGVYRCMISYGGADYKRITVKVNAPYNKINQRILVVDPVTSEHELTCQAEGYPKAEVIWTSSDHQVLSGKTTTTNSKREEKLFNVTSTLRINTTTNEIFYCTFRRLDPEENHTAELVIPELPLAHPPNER
T1 sequence (Q9NZQ7 19-238 limits assumed): as above
T1 sequence (Q9NZQ7 19-238 limits assumed): as above
T2 sequence (Q9NZQ7 19-290): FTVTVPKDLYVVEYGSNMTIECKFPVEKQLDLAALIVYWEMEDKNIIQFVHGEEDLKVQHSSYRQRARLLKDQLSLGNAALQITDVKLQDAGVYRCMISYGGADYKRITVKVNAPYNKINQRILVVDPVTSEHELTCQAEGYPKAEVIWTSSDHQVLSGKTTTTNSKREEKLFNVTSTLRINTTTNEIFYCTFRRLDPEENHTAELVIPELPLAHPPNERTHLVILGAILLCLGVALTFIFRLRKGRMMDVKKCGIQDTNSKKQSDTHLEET

Row | AC50 (PD-L1) | IC50 (PD-1/PD-L1) | EC50 (PD-1/PD-L1 interaction) | SMILES
1 | 111 nM | 0.704 nM | 152 nM | COc1nc(-c2cccc(-c3cccc4c3CC[C@@H]4Oc3nc(OC)c(CNC[C@@H]4CCC(=O)N4)cc3Br)c2Br)ccc1CNC[C@@H]1CCC(=O)N1 [Example 698]
2 | 24.7 nM | 0.12 nM | 136 nM | COc1nc(-c2cccc(-c3cccc4c3CC[C@@H]4Oc3nc(OCc4cncc(C#N)c4)c(CN[C@@](C)(CO)C(=O)O)cc3Br)c2Br)ccc1CNC[C@@H]1CCC(=O)N1 [Example 699]
3 | 22.1 nM | 0.064 nM | 43 nM | COc1nc(-c2cccc(-c3cccc4c3CC[C@@H]4Oc3nc(OCc4cncc(C#N)c4)c(CN[C@@](C)(CO)C(=O)O)cc3Cl)c2Br)ccc1CNC[C@@H]1CCC(=O)N1 [Example 700]
4 | 332 nM | 0.818 nM | 3050 nM | COc1nc(-c2cccc(-c3cccc4c3CC[C@@H]4Oc3nc(OCc4cncc(C#N)c4)c(CNC(C)(C)C(=O)O)cc3Cl)c2Br)ccc1C1=NCCN1 [Example 701]
5 | 332 nM | 0.316 nM | 1310 nM | COc1nc(-c2cccc(-c3cccc4c3CC[C@@H]4Oc3nc(OCc4cncc(C#N)c4)c(CN[C@@](C)(CO)C(=O)O)cc3Cl)c2Br)ccc1C1=NCCN1 [Example 702]
6 | 24.2 nM | 0.064 nM | 11 nM | COc1nc(O[C@H]2CCc3c(-c4cccc(-c5cnc(CN6CC(CO)C6)c(OC)n5)c4Cl)cccc32)c(Cl)cc1CN1CC[C@H](C(=O)O)C1 [Example 703]
7 | 66.8 nM | 0.064 nM | 11 nM | COc1nc(-c2cccc(-c3cccc4c3CC[C@@H]4Oc3nc(OC)c(CN4CC[C@H](C(=O)O)C4)cc3Cl)c2Cl)ccc1CN1CC(CO)C1 [Example 704]
8 | 60.6 nM | 0.064 nM | 20 nM | COc1nc(O[C@H]2CCc3c(-c4cccc(-c5cnc(CN6CC(C)(O)C6)c(OC)n5)c4Cl)cccc32)c(Cl)cc1CN1CC[C@H](C(=O)O)C1 [Example 705]
9 | 42.8 nM | 0.064 nM | 14 nM | COc1nc(-c2cccc(-c3cccc4c3CC[C@@H]4Oc3nc(OC)c(CN4CC[C@H](C(=O)O)C4)cc3Cl)c2Cl)ccc1CN1CC(C)(O)C1 [Example 706]
10 | 39.3 nM | 0.064 nM | 31 nM | COc1nc(O[C@H]2CCc3c(-c4cccc(-c5cnc(CN6CC(C)(CO)C6)c(OC)n5)c4Cl)cccc32)c(Cl)cc1CN1CC[C@H](C(=O)O)C1 [Example 707]
11 | 38.6 nM | 0.064 nM | 34 nM | COc1nc(-c2cccc(-c3cccc4c3CC[C@@H]4Oc3nc(OC)c(CN4CC[C@H](C(=O)O)C4)cc3Cl)c2Cl)ccc1CN1CC(C)(CO)C1 [Example 708]
12 | 49.4 nM | 0.064 nM | 21 nM | COc1nc(O[C@H]2CCc3c(-c4cccc(-c5cnc(CN6CC(O)C6)c(OC)n5)c4Cl)cccc32)c(Cl)cc1CN1CC[C@H](C(=O)O)C1 [Example 709]

The next lines start with the compound.

Row | SMILES | AC50 (PD-L1) | IC50 (PD-1/PD-L1) | EC50 (PD-1/PD-L1 interaction)
13 | C[C@@](CO)(NCc1cc(Cl)c(O[C@H]2CCc3c(-c4cccc(-c5ccc(OCCN6CC[C@@H](O)C6)cc5)c4Cl)cccc32)nc1OCc1cncc(C#N)c1)C(=O)O [Example 668] | 16.5 nM | 0.064 nM | 886 nM
14 | C[C@@](CO)(NCc1cc(Cl)c(O[C@H]2CCc3c(-c4cccc(-c5ccc(OCCN6CC[C@@H](O)C6)cc5)c4Cl)cccc32)nc1OCc1cncc(S(C)(=O)=O)c1)C(=O)O [Example 669] | 17.2 nM | 0.064 nM | 637 nM
15 | CN1CCCC1c1ccc(-c2cccc(-c3cccc4c3CC[C@@H]4Oc3nc(OCc4cncc(C#N)c4)c(CNCCO)cc3Cl)c2Cl)cc1 (stereo partly drawn) [Example 670] | 74.8 nM | 1.74 nM | ≥ 50000 nM
16 | C[C@@](CO)(NCc1cc(Cl)c(O[C@H]2CCc3c(-c4cccc(-c5ccc(S(N)(=O)=O)cc5)c4Cl)cccc32)nc1OCc1cncc(C#N)c1)C(=O)O [Example 671] | ≥ 10000 nM | 0.159 nM | 235 nM
17 | CN1CCCC1c1ccc(-c2cccc(-c3cccc4c3CC[C@@H]4Oc3nc(OCc4cncc(C#N)c4)c(CNC(C)(C)C(=O)O)cc3Cl)c2Cl)cc1 (stereo partly drawn) [Example 672] | 24.5 nM | 0.064 nM | 435 nM
18 | C[C@@](CO)(NCc1ccc(O[C@H]2CCc3c(-c4cccc(OCCCN5CC[C@@H](O)C5)c4Cl)cccc32)nc1OCc1cncc(C#N)c1)C(=O)O [Example 673] | 399 nM | 0.154 nM | 583 nM
19 | C[C@@](CO)(NCc1cc(Cl)c(O[C@H]2CCc3c(-c4cccc(-c5ccc(OCCNCCO)cc5)c4Cl)cccc32)nc1OCc1cncc(C#N)c1)C(=O)O [Example 674] | 11.3 nM | 0.064 nM | 44 nM
20 | Cc1c(-c2ccc(OCCNC[C@@H](O)CC(=O)O)cc2)cccc1-c1cccc2c1CC[C@@H]2Oc1ccc(CNC[C@@H](O)CC(=O)O)c(OCc2cncc(C#N)c2)n1 [Example 677] | 180 nM | 0.063 nM | 145 nM
21 | COc1nc(O[C@H]2CCc3c(-c4cccc5c4CC[C@@H]5Oc4ccc(CNC[C@@H](O)CC(=O)O)c(OCc5cncc(C#N)c5)n4)cccc32)c(Br)cc1CNC[C@@H](O)CC(=O)O [Example 678] | 254 nM | 0.105 nM | 264 nM
22 | COc1nc(O[C@H]2CCc3c(-c4cccc5c4CC[C@@H]5Oc4nc(OCc5cncc(C#N)c5)c(CNC[C@@H](O)CC(=O)O)cc4Br)cccc32)c(Br)cc1CNC[C@@H](O)CC(=O)O [Example 679] | 101 nM | 0.058 nM | 64 nM
23 | COc1nc(-c2cccc(-c3cccc4c3CC[C@@H]4Oc3nc(OCc4cncc(C#N)c4)c(CN[C@@](C)(CO)C(=O)O)cc3Cl)c2Cl)ccc1CN1CC2(C1)CN(C(=O)OC(C)(C)C)C2 [Example 682] | 194 nM | 0.421 nM | 243 nM
24 | COc1nc(-c2cccc(-c3cccc4c3CC[C@@H]4Oc3nc(OCc4cncc(C#N)c4)c(CNC[C@@H](O)CC(=O)O)cc3Cl)c2Cl)ccc1CN1CC2(CCC(=O)N2)C1 [Example 683] | 116 nM | 0.104 nM | 98 nM
25 | COc1nc(-c2cccc(-c3cccc4c3CC[C@@H]4Oc3nc(OCc4cncc(C#N)c4)c(CN[C@@](C)(CO)C(=O)O)cc3Cl)c2Cl)ccc1CN1CC2(CCC(=O)N2)C1 [Example 684] | 41.2 nM | 0.064 nM | 36 nM
26 | C[C@@](CO)(NCc1ccc(O[C@H]2CCc3c(-c4cccc5c4CC[C@@H]5Oc4nc(OCc5cncc(C#N)c5)c(CN[C@@](C)(CO)C(=O)O)cc4Cl)cccc32)cc1)C(=O)O [Example 685] | 1820 nM | 0.552 nM | 625 nM
27 | C[C@@](CO)(NCc1cc(Cl)c(O[C@H]2CCc3c(-c4cccc5c4CC[C@@H]5Oc4nc(OCc5cc(C#N)cc(C#N)c5)c(CN[C@@](C)(CO)C(=O)O)cc4Cl)cccc32)nc1OCc1cc(C#N)cc(C#N)c1)C(=O)O [Example 686] | 137 nM | 0.282 nM | 46 nM
28 | C[C@@](CO)(NCc1cc(Cl)c(O[C@H]2CCc3c(-c4cccc5c4CC[C@@H]5Oc4ccc(CN5CC[C@@H](O)C5)c(OCc5cncc(S(C)(=O)=O)c5)n4)cccc32)nc1OCc1cncc(S(C)(=O)=O)c1)C(=O)O [Example 687] | 3100 nM | 0.659 nM | 605 nM
29 | C[C@@](CO)(NCc1cc(Cl)c(O[C@H]2CCc3c(-c4cccc5c4CC[C@@H]5Oc4nc(OCc5cncc(S(C)(=O)=O)c5)c(CN5CC[C@@H](O)C5)cc4Cl)cccc32)nc1OCc1cncc(S(C)(=O)=O)c1)C(=O)O [Example 688] | 141 nM | 0.412 nM | ≥ 50000 nM
30 | CS(=O)(=O)c1cncc(COc2nc(O[C@H]3CCc4c(-c5cccc6c5CC[C@@H]6Oc5nc(OCc6cncc(S(C)(=O)=O)c6)c(CN6CC[C@@H](O)C6)cc5Cl)cccc43)c(Cl)cc2CN2CC[C@@H](O)C2)c1 [Example 689] | 114 nM | 0.064 nM | 139 nM
31 | C[C@@](CO)(NCc1cc(Cl)c(O[C@H]2CCc3c(-c4cccc5c4CC[C@@H]5Oc4nc(OCc5cncc(S(C)(=O)=O)c5)c(CNCCO)cc4Cl)cccc32)nc1OCc1cncc(S(C)(=O)=O)c1)C(=O)O [Example 690] | 80.8 nM | 0.28 nM | 287 nM
32 | C[C@@](CO)(NCc1cc(Cl)c(O[C@H]2CCc3c(-c4cccc(-c5ccc6c(c5)C[C@H](N)C6)c4Cl)cccc32)nc1OCc1cncc(C#N)c1)C(=O)O [Example 695] | 21.6 nM | 0.064 nM | 26 nM
33 | C[C@@](CO)(NCc1cc(Cl)c(O[C@H]2CCc3c(-c4cccc(-c5ccc6c(c5)C[C@@H](N)C6)c4Cl)cccc32)nc1OCc1cncc(C#N)c1)C(=O)O [Example 696] | 16.9 nM | 0.099 nM | 12 nM
34 | COc1nc(-c2cccc(-c3cccc4c3CC[C@@H]4Oc3nc(OC)c(CN[C@@](C)(CO)C(=O)O)cc3Br)c2Br)ccc1CNC[C@@H]1CCC(=O)N1 [Example 697] | 51 nM | 0.068 nM | 50 nM
